Test results taken from patent US10167257B2, “Indole derivatives for use in medicine” (IOmet Pharma Ltd., priority 2014, dated 2019).

Key:
TDO (A172 cells) = molecular target: T1, TDO (A172 cells) (Homo sapiens, UniProt P48775); assay: TDO cell-based assay (A172), kynurenine production; conditions: A172 human glioblastoma cells, 500 μM L-Trp, 48 h, kynurenine by absorbance at 490 nm
T1 construct: This assay utilised cancer cells which expressed either TDO or IDO; host or cells: A172 human glioblastoma cells
Excerpt: (§1) Two different types of assay were employed: 1. A TDO and IDO biochemical coupled assay which utilised recombinantly produced and purified TDO and IDO enzymes in combination with the enzyme formamidase. This coupled enzyme system allowed conversion of N-formylkynurenine produced by TDO or IDO activity to kynurenine which was then quantified by fluorescence following addition of Erhlich's Reagent. 2. A cell-based assay for detecting the effect of test compounds on kynurenine production in two different cancer cell types. This assay utilised cancer cells which expressed either TDO or IDO and as such was used as a means of testing compound activity at these two enzymes in a cell-based context. The protocols for these are set out below.
(§2) A172 human glioblastoma (ATCC) were grown in DMEM+2 mM L-glutamine medium supplemented with 10% foetal bovine serum and SKOV-3 ovary adenocarcinoma (ATCC) cells were grown in McCoys 5A+L-glutamax medium supplemented with 15% foetal bovine serum. On the day of assay, cells were detached using trypsin-EDTA (0.25% v/v), re-suspended in assay media (RPMI 1640 phenol red free+L-glutamine supplemented with 10% dialysed foetal bovine serum). A172 cells were seeded at 30K cells per well and SKOV-3 cells at 40K cells per well into 96-well plates containing test samples/vehicle control together with 500 μM L-Trp. Cells were then incubated for 48 h at 37° C., 5% CO2. In SK-OV-3 cells, IFNγ was also added at 500 ng/ml for the 48 h incubation in order to induce expression of IDO. Plates were centrifuged and the supernatant was removed and incubated for 5 min in the presence of 1% Erhlich's reagent. Kynurenine levels were then quantified by measuring absorbance at 490 nm.

IDO (SKOV-3 cells) = molecular target: T2, IDO (SKOV-3 cells) (Homo sapiens, UniProt P14902); assay: IDO cell-based assay (SKOV-3, IFNγ-induced), kynurenine production; conditions: SKOV-3 ovary adenocarcinoma cells, IFNγ 500 ng/ml, 500 μM L-Trp, 48 h, kynurenine by absorbance at 490 nm
T2 construct: This assay utilised cancer cells which expressed either TDO or IDO; host or cells: SKOV-3 ovary adenocarcinoma cells, IFNγ-induced
Excerpt: as §1, §2

T2 sequence (P14902 whole entry): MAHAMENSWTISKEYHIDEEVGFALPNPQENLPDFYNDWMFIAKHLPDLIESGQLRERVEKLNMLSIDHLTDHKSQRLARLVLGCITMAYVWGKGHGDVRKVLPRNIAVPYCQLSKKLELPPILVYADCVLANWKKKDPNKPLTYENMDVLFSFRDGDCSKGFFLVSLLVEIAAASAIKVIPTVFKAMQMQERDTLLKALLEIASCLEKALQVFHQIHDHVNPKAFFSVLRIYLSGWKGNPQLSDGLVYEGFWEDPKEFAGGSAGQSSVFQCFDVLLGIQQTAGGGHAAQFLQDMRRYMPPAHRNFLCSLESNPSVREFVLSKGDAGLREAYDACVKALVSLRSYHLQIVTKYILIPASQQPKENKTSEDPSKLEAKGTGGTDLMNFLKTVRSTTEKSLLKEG
T1 sequence (P48775 whole entry): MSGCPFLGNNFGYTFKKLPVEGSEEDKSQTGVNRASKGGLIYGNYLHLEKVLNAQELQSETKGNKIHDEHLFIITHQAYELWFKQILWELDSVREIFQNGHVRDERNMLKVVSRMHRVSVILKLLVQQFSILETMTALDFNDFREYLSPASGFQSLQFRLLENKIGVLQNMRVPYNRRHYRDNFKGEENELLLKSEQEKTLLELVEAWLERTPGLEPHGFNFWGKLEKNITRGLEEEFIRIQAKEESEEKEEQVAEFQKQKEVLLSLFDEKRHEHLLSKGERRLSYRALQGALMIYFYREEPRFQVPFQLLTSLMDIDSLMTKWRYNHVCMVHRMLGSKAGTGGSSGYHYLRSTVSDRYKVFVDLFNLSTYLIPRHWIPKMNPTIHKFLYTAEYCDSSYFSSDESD

Row | SMILES | TDO cellular assay (A172) pIC50 (TDO (A172 cells)) | IDO cellular assay (SKOV3) pIC50 (IDO (SKOV-3 cells))
1 | CC(NC(=O)c1cc2cc(Cl)ccc2[nH]1)C1CCCC1 (stereo not drawn) [Compound 98] | − (− = pIC50 <4.50) | +++ (+++ = pIC50 ≥5.50)
2 | O=C(NCC1CCCN(C(=O)C2CC2)C1)c1cc2cc(Cl)ccc2[nH]1 (stereo not drawn) [Compound 108] | − (− = pIC50 <4.50) | ++ (++ = pIC50 5.00-<5.50)
3 | CC(NC(=O)c1cc2cnccc2[nH]1)c1ccccc1 (stereo not drawn) [Compound 79] | − (− = pIC50 <4.50) | + (+ = pIC50 4.50-<5.00)
4 | CC(C)Oc1ccc2[nH]c(C(=O)NC(C)c3cnn(C)c3)cc2c1 (stereo not drawn) [Compound 262] | − (− = pIC50 <4.50) | + (+ = pIC50 4.50-<5.00)
5 | CC(NC(=O)c1cc2ccccc2[nH]1)c1ccc(C(F)(F)F)cc1 (stereo not drawn) [Compound 19] | − (− = pIC50 <4.50) | +++ (+++ = pIC50 ≥5.50)
6 | COCCn1cc(C(C)NC(=O)c2cc3cc(Cl)ccc3[nH]2)cn1 (stereo not drawn) [Compound 195] | − (− = pIC50 <4.50) | ++ (++ = pIC50 5.00-<5.50)
7 | Cc1ccc(C(C)NC(=O)c2cc3cc(F)ccc3[nH]2)o1 (stereo not drawn) [Compound 24] | + (+ = pIC50 4.50-<5.00) | ++ (++ = pIC50 5.00-<5.50)
8 | O=C(NC1(c2ccc(F)cc2)COC1)c1cc2cc(Cl)ccc2[nH]1 [Compound 244] | − (− = pIC50 <4.50) | +++ (+++ = pIC50 ≥5.50)
9 | Cc1ccc2[nH]c(C(=O)NCc3ccc(F)cc3)cc2c1 [Compound 27] | − (− = pIC50 <4.50) | ++ (++ = pIC50 5.00-<5.50)
10 | Cn1cc(C2(NC(=O)c3cc4cc(OC(F)(F)F)ccc4[nH]3)CCC2)cn1 [Compound 269] | − (− = pIC50 <4.50) | +++ (+++ = pIC50 ≥5.50)
11 | O=C(NCc1cccc(Cl)c1)c1cc2ccccc2[nH]1 [Compound 30] | − (− = pIC50 <4.50) | + (+ = pIC50 4.50-<5.00)
12 | O=C(NC1(C2CCOCC2)CC1)c1cc2cc(Cl)ccc2[nH]1 [Compound 144] | + (+ = pIC50 4.50-<5.00) | +++ (+++ = pIC50 ≥5.50)
13 | O=C(NC1CCCCC1O)c1cc2cc(Cl)ccc2[nH]1 (stereo not drawn) [Compound 119] | − (− = pIC50 <4.50) | + (+ = pIC50 4.50-<5.00)
14 | CC(C)(NC(=O)c1cc2cc(Cl)ccc2[nH]1)c1ccccc1 [Compound 68] | ++ (++ = pIC50 5.00-<5.50) | +++ (+++ = pIC50 ≥5.50)
15 | O=C(NC1(c2ccccc2)CC1)C1Cc2cc(Cl)ccc2N1 (stereo not drawn) [Compound 246] | + (+ = pIC50 4.50-<5.00) | +++ (+++ = pIC50 ≥5.50)
16 | CC(NC(=O)c1cc2cc(C(N)=O)ccc2[nH]1)c1ccccc1 (stereo not drawn) [Compound 88] | +++ (+++ = pIC50 ≥5.50) | − (− = pIC50 <4.50)
17 | CC(NC(=O)c1cc2cc(Cl)ccc2[nH]1)c1cnn(C)c1 (stereo not drawn) [Compound 133] | − (− = pIC50 <4.50) | +++ (+++ = pIC50 ≥5.50)
18 | Cn1cc(C2(NC(=O)c3cc4cc(Br)ccc4[nH]3)CC2)cn1 [Compound 263] | − (− = pIC50 <4.50) | +++ (+++ = pIC50 ≥5.50)
19 | COc1ccc2cc(C(=O)NC(C)c3cnn(C)c3)[nH]c2c1 (stereo not drawn) [Compound 166] | − (− = pIC50 <4.50) | + (+ = pIC50 4.50-<5.00)
20 | O=C(Nc1cccc2ccccc12)c1cc2ccc(F)cc2[nH]1 [Compound 65] | − (− = pIC50 <4.50) | +++ (+++ = pIC50 ≥5.50)
21 | CC(NC(=O)c1cc2ccc(C#N)cc2[nH]1)c1ccccc1 (stereo not drawn) [Compound 85] | ++ (++ = pIC50 5.00-<5.50) | ++ (++ = pIC50 5.00-<5.50)
